# Measurements reported in US9593149B2, “Amylin and calcitonin receptor agonist” (Novo Nordisk A/S, priority 2014, dated 2017).
# Numbered stars: 1 amine (or outer) side, 2 acyl side, 3 side chain; on linkers, the order of the positions; unused ones are H or OH. Peptide text beside a SMILES is read from it. * marks the point of attachment. C20 diacid = O=C(O)CCCCCCCCCCCCCCCCCCC(=O)*; C18 diacid = O=C(O)CCCCCCCCCCCCCCCCC(=O)*; γGlu = O=C(O)[C@H](CCC(=O)[*:2])N[*:1]; C14 diacid = O=C(O)CCCCCCCCCCCCC(=O)*; AEEA = NCCOCCOCC(=O)O
# Experiment: Assay (IV) determination of solubility
# Assay type: physicochemical
# Experimental: Assay (IV)—Determination of Solubility
# The mimylin peptide was dissolved in water at ˜500 nmol/ml and mixed 1:1 with a series of buffers (100 mM glycylglycine pH 3.0, 100 mM glycylglycine pH 4.0, 100 mM glycylglycine pH 5.0, 100 mM bistrispropane pH 6.0, 100 mM bistrispropane pH 6.5, 100 mM bistrispropane pH 7.0, 100 mM bistrispropane pH 7.5, 100 mM bistrispropane pH 8.0).
Structure (SMILES),Solubility (pH 3.0),Solubility (pH 4.0),Solubility (pH 5.0),Solubility (pH 6.0),Solubility (pH 6.5),Solubility (pH 7.0),Solubility (pH 7.5),Solubility (pH 8.0),solubility at 18 h (pH 5.0),solubility at 18 h (pH 4.0)
"CC(C)C[C@H](NC(=O)[C@H](C)NC(=O)[C@H](C)NC(=O)[C@@H](NC(=O)[C@H](CO)NC(=O)[C@H](CC(C)C)NC(=O)[C@H](CCC(=O)O)NC(=O)[C@H](CO)NC(=O)[C@H](C)NC(=O)COCCOCCNC(=O)COCCOCCNC(=O)COCCOCCNC(=O)COCCOCCNC(=O)CC[C@H](NC(=O)CCCCCCCCCCCCCCCCCCC(=O)O)C(=O)O)[C@@H](C)O)C(=O)NCC(=O)N[C@@H](CCCNC(=N)N)C(=O)N[C@@H](CC(C)C)C(=O)N[C@@H](CO)C(=O)N[C@@H](C)C(=O)N[C@@H](CCC(=O)O)C(=O)N[C@@H](CC(C)C)C(=O)N[C@@H](Cc1cnc[nH]1)C(=O)N[C@@H](CCC(=O)O)C(=O)N[C@@H](CC(C)C)C(=O)N[C@@H](C)C(=O)N[C@H](C(=O)N[C@@H](CC(C)C)C(=O)N1CCC[C@H]1C(=O)N[C@@H](CCCNC(=N)N)C(=O)N[C@H](C(=O)N[C@@H](CCC(=O)O)C(=O)N[C@H](C(=O)NCC(=O)N[C@@H](CO)C(=O)NCC(=O)N[C@@H](CO)C(=O)N1CCC[C@H]1C(N)=O)[C@@H](C)O)[C@@H](C)O)[C@@H](C)O [compound 44, [N-terminal(C20 diacid-gGlu-4xOEG), des1, 30S, 31G]mimylin] ({C20 diacid-γGlu-AEEA-AEEA-AEEA-AEEA}-ASELSTAALGRLSAELHELATLPRTETGSGSP-NH2)",≧200 μM,≧200 μM,≧200 μM,≧200 μM,≧200 μM,≧200 μM,≧200 μM,≧200 μM,–,–
"CC(C)C[C@H](NC(=O)CNC(=O)[C@H](CO)NC(=O)[C@H](C)NC(=O)CC[C@H](NC(=O)CCCCCCCCCCCCCCCCCCC(=O)O)C(=O)O)C(=O)N[C@@H](CO)C(=O)N[C@H](C(=O)N[C@@H](C)C(=O)N[C@@H](C)C(=O)N[C@@H](CC(C)C)C(=O)NCC(=O)N[C@@H](CCCNC(=N)N)C(=O)N[C@@H](CC(C)C)C(=O)N[C@@H](CO)C(=O)N[C@@H](CCC(N)=O)C(=O)N[C@@H](CCC(=O)O)C(=O)N[C@@H](CC(C)C)C(=O)N[C@@H](Cc1cnc[nH]1)C(=O)N[C@@H](CCC(=O)O)C(=O)N[C@@H](CC(C)C)C(=O)N[C@@H](CCC(=O)O)C(=O)N[C@H](C(=O)N[C@@H](Cc1ccc(O)cc1)C(=O)N1CCC[C@H]1C(=O)N[C@@H](CCCNC(=N)N)C(=O)N[C@H](C(=O)N[C@@H](CCC(=O)O)C(=O)N[C@H](C(=O)NCC(=O)N[C@@H](CO)C(=O)NCC(=O)N[C@H](C(=O)N[C@@H](Cc1ccc(O)cc1)C(N)=O)[C@@H](C)O)[C@@H](C)O)[C@@H](C)O)[C@@H](C)O)[C@@H](C)O [compound 108, [N-terminal(C20 diacid-gGlu), des1, 4G, 15Q, 21E, 23Y, 30S, 31G, 32T, 33Y]mimylin] ({C20 diacid-γGlu}-ASGLSTAALGRLSQELHELETYPRTETGSGTY-NH2)",≧200 μM,≧200 μM,–,≧200 μM,≧200 μM,≧200 μM,≧200 μM,≧200 μM,65 µM,–
"CC(C)C[C@H](NC(=O)[C@H](C)NC(=O)[C@H](C)NC(=O)[C@@H](NC(=O)[C@H](CO)NC(=O)[C@H](CC(C)C)NC(=O)[C@H](CCC(=O)O)NC(=O)[C@H](CO)NC(=O)[C@H](C)NC(=O)CC[C@H](NC(=O)CCCCCCCCCCCCCCCCCCC(=O)O)C(=O)O)[C@@H](C)O)C(=O)NCC(=O)N[C@@H](CCCNC(=N)N)C(=O)N[C@@H](CC(C)C)C(=O)N[C@@H](CO)C(=O)N[C@@H](C)C(=O)N[C@@H](CCC(=O)O)C(=O)N[C@@H](CC(C)C)C(=O)N[C@@H](Cc1cnc[nH]1)C(=O)N[C@@H](CCC(=O)O)C(=O)N[C@@H](CC(C)C)C(=O)N[C@@H](C)C(=O)N[C@H](C(=O)N[C@@H](Cc1ccc(O)cc1)C(=O)N1CCC[C@H]1C(=O)N[C@@H](CCCNC(=N)N)C(=O)N[C@H](C(=O)N[C@@H](CCC(=O)O)C(=O)N[C@H](C(=O)NCC(=O)N[C@@H](CO)C(=O)NCC(=O)N[C@@H](CO)C(=O)N[C@@H](Cc1ccc(O)cc1)C(N)=O)[C@@H](C)O)[C@@H](C)O)[C@@H](C)O [compound 80, [N-terminal(C20 diacid-gGlu), des1, 23Y, 30S, 31G, 33Y]mimylin] ({C20 diacid-γGlu}-ASELSTAALGRLSAELHELATYPRTETGSGSY-NH2)",≧200 μM,≧200 μM,–,≧200 μM,≧200 μM,≧200 μM,≧200 μM,≧200 μM,10 µM,–
"CC(C)C[C@H](NC(=O)[C@H](CCC(=O)O)NC(=O)[C@H](C)NC(=O)[C@H](CO)NC(=O)[C@H](CC(C)C)NC(=O)[C@H](CCCNC(=N)N)NC(=O)CNC(=O)[C@H](CC(C)C)NC(=O)[C@@H](NC(=O)[C@H](C)NC(=O)[C@@H](NC(=O)[C@H](CO)NC(=O)[C@H](CC(C)C)NC(=O)[C@H](CCC(=O)O)NC(=O)[C@H](CO)NC(=O)[C@H](C)NC(=O)[C@H](CCC(=O)O)NC(=O)CCCCCCCCCCCCCCCCC(=O)O)[C@@H](C)O)C(C)C)C(=O)N[C@@H](C)C(=O)N[C@@H](CCC(=O)O)C(=O)N[C@@H](CC(C)C)C(=O)N[C@@H](C)C(=O)N[C@H](C(=O)N[C@@H](CC(C)C)C(=O)N1CCC[C@H]1C(=O)N[C@@H](CCCNC(=N)N)C(=O)N[C@H](C(=O)N[C@@H](CCC(=O)O)C(=O)N[C@H](C(=O)NCC(=O)N1CCC[C@H]1C(=O)N[C@@H](CCC(=O)O)C(=O)N[C@@H](CO)C(=O)N1CCC[C@H]1C(N)=O)[C@@H](C)O)[C@@H](C)O)[C@@H](C)O [compound 33, [N-terminal(C18 diacid), 9V, 18A]mimylin] ({C18 diacid}-EASELSTAVLGRLSAELAELATLPRTETGPESP-NH2)",≧200 μM,–,≧200 μM,≧200 μM,≧200 μM,≧200 μM,≧200 μM,≧200 μM,–,1 µM

# Other lines, results leading:
Solubility (pH 3.0),Solubility (pH 4.0),Solubility (pH 5.0),Solubility (pH 6.0),Solubility (pH 6.5),Solubility (pH 7.0),Solubility (pH 7.5),Solubility (pH 8.0),solubility at 18 h (pH 5.0),solubility at 18 h (pH 4.0),Structure (SMILES)
≧200 μM,≧200 μM,≧200 μM,≧200 μM,≧200 μM,≧200 μM,≧200 μM,≧200 μM,–,–,"CC(C)C[C@H](NC(=O)[C@H](C)NC(=O)[C@H](C)NC(=O)[C@@H](NC(=O)[C@H](CO)NC(=O)[C@H](CC(C)C)NC(=O)[C@H](CCC(=O)O)NC(=O)[C@H](CO)NC(=O)[C@H](C)NC(=O)[C@H](CCC(=O)O)NC(=O)CCCCCCCCCCCCCCCCC(=O)O)[C@@H](C)O)C(=O)NCC(=O)N[C@@H](CCCNC(=N)N)C(=O)N[C@@H](CC(C)C)C(=O)N[C@@H](CO)C(=O)N[C@@H](C)C(=O)N[C@@H](CCC(=O)O)C(=O)N[C@@H](CC(C)C)C(=O)N[C@@H](Cc1cnc[nH]1)C(=O)N[C@@H](CCC(=O)O)C(=O)N[C@@H](CC(C)C)C(=O)N[C@@H](C)C(=O)N[C@H](C(=O)N[C@@H](CC(C)C)C(=O)N1CCC[C@H]1C(=O)N[C@@H](CCCNC(=N)N)C(=O)N[C@H](C(=O)N[C@@H](CCC(=O)O)C(=O)N[C@H](C(=O)NCC(=O)N1CCC[C@H]1C(=O)N[C@@H](CCC(=O)O)C(=O)N[C@@H](Cc1cnc[nH]1)C(=O)N1CCC[C@H]1C(N)=O)[C@@H](C)O)[C@@H](C)O)[C@@H](C)O [compound 18, [N-terminal(C18 diacid), 32H]mimylin] ({C18 diacid}-EASELSTAALGRLSAELHELATLPRTETGPEHP-NH2)"
≧200 μM,≧200 μM,≧200 μM,≧200 μM,≧200 μM,≧200 μM,≧200 μM,≧200 μM,–,–,"CC(C)C[C@H](NC(=O)[C@H](C)NC(=O)[C@H](C)NC(=O)[C@@H](NC(=O)[C@H](CO)NC(=O)[C@H](CC(C)C)NC(=O)[C@H](CCC(=O)O)NC(=O)[C@H](CO)NC(=O)[C@H](C)NC(=O)CC[C@H](NC(=O)CCCCCCCCCCCCC(=O)O)C(=O)O)[C@@H](C)O)C(=O)NCC(=O)N[C@@H](CCCNC(=N)N)C(=O)N[C@@H](CC(C)C)C(=O)N[C@@H](CO)C(=O)N[C@@H](C)C(=O)N[C@@H](CCC(=O)O)C(=O)N[C@@H](CC(C)C)C(=O)N[C@@H](Cc1cnc[nH]1)C(=O)N[C@@H](CCC(=O)O)C(=O)N[C@@H](CC(C)C)C(=O)N[C@@H](C)C(=O)N[C@H](C(=O)N[C@@H](CC(C)C)C(=O)N1CCC[C@H]1C(=O)N[C@@H](CCCNC(=N)N)C(=O)N[C@H](C(=O)N[C@@H](CCC(=O)O)C(=O)N[C@H](C(=O)NCC(=O)N1CCC[C@H]1C(=O)N[C@@H](CCC(=O)O)C(=O)N[C@@H](CO)C(=O)N1CCC[C@H]1C(N)=O)[C@@H](C)O)[C@@H](C)O)[C@@H](C)O [compound 19, [N-terminal(C14 diacid-gGlu), des1]mimylin] ({C14 diacid-γGlu}-ASELSTAALGRLSAELHELATLPRTETGPESP-NH2)"
